From patent publication US20160376240A1, “6 Phenyl or 6 Pyridin 3 YL Indazole Derivatives and Methods of Use” (ABBVIE INC., priority 2014, published 2016)

These compounds were tested against T1, TrkA (Homo sapiens, UniProt P04629) (assay: TrkA kinase inhibition, HTRF assay). Details: LCK peptide substrate 125 nM, TrkA 2-10 nM pre-incubated with ATP 200 μM.
T1 construct: purchased Invitrogen PV3144
Format: biochemical
Description: TrkA, TrkB, and TrkC enzymes were obtained from Invitrogen (as catalog numbers PV3144, PV3616, and PV3617, respectively). The ability of a compound to inhibit the enzymatic activity of the TrkA, TrkB, and TrkC enzymes was determined in separate assays. Enzyme activity was measured in an HTRF® (homogeneous time resolved fluorescence) assay, which detects enzymatic phosphorylation of a biotinylated synthetic peptide substrate (an LCK peptide analog, biotin-ahx-GAEEEIYAAFFA, from Genemed Synthesis). Phosphorylation is assessed by HTRF® in the presence of an anti-phosphotyrosine antibody conjugated to Eu^3+ cryptate (Cisbio) as donor fluorophore, and streptavidin conjugated to allophycocyanin (ProZyme) as acceptor fluorophore. The HTRF® signal was detected at two different wavelengths (620 nm and 665 nm) which were used to calculate the fluorescence ratio.
Each enzyme was titrated to a concentration optimized to ensure accurate measurement of the initial reaction rate. To allow the Trk enzymes to undergo activation and auto-phosphorylation, a 20 minute pre-incubation with ATP was carried out (at twice the final targeted enzyme and ATP concentration) prior to addition of test compound and the peptide substrate.
TrkA in vitro assays were performed by pre-incubating TrkA (2-10 nM) with ATP (200 μM) for 20 minutes at ambient temperature in 50 mM HEPES pH 7.4, 10 mM MgCl2, 2 mM MnCl2, 100 μM Na3VO4, 1 mM dithiothreitol, 0.01% BSA (bovine serum albumin). Then, to the activated Trk enzyme mixture was added the test compound in 2% dimethyl sulfoxide. After 10 minutes, the peptide substrate (125 nM) was added. After 1 hour, enzyme reactions were terminated by addition of equal reaction volumes of detection/stop reagent (containing 0.2 μg/mL anti-phosphotyrosine monoclonal antibody labeled with europium from Cisbio (catalog# PT66-K), and 4 μg/mL PhycoLink® Streptavidin-Allophycocyanin conjugate from ProZyme (catalog# PJ25S) in 60 mM EDTA in 40 mM HEPES pH 7.4, 480 mM KF, 0.01% Tween® 20 and 0.1% BSA bovine serum albumin) Reaction plates were stored at 4° C. overnight before reading the fluorescence ratio signal on a PerkinElmer EnVision™ fluorescence detector. Individual reaction wells were stopped at time points to obtain reaction rates. The test inhibitor compounds were assayed in duplicate, at half-log serial dilutions over a range of concentrations (e.g. starting at 50 μM or 5 μM as the high compound concentration). The percent Trk enzyme inhibition was calculated from the initial rates of the inhibited reactions relative to the uninhibited control. IC50 values were calculated by fitting the inhibition percent to the concentration of inhibitor [I] in the assay in equation 1 below, to solve for the IC50.
Inhibition %=100[I]/([I]+[IC50]) equation 1

T1 sequence (P04629 33-796): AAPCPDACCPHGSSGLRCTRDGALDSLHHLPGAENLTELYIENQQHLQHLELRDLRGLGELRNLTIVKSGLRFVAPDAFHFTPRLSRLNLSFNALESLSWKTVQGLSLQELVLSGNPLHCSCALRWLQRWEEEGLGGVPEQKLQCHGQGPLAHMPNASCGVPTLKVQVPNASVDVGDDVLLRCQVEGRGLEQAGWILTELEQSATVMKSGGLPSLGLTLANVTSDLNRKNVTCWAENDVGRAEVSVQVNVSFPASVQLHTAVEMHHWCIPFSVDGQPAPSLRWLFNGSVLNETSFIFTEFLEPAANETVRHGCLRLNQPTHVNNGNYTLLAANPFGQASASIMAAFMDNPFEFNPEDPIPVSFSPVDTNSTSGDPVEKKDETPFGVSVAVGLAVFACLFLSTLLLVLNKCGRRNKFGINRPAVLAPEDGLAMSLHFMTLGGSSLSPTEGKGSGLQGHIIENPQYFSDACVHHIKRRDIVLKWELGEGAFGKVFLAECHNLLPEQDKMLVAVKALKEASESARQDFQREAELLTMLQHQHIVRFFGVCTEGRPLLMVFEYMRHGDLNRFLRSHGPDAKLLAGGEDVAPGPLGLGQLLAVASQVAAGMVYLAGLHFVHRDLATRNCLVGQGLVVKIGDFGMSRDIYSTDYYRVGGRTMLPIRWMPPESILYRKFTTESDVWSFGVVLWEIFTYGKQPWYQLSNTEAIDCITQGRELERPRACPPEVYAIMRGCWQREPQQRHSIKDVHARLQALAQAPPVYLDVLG

Which IC50 does the source give for `CNC(=O)c1ccc(-c2cc(OC3CCOCC3)c3c(N)n[nH]c3c2)cc1N1CCN(CC2CC(F)(F)C2)CC1` [Example 171, 4-[3-amino-4-(tetrahydro-2H-pyran-4-yloxy)-1H-indazol-6-yl]-2-{4-[(3,3-difluorocyclobutyl)methyl]piperazin-1-yl}-N-methylbenzamide] here?
Its IC50 is 5.5 nM.

For `CC(=O)Nc1ccc(-c2cc(OC3CCOCC3)c3c(C)n[nH]c3c2)cc1N1CCN(C(=O)NC(C)C)CC1` [Example 151, 4-{2-acetamido-5-[3-methyl-4-(tetrahydro-2H-pyran-4-yloxy)-1H-indazol-6-yl]phenyl}-N-isopropylpiperazine-1-carboxamide], which IC50 is on record?
The IC50 was 166 nM.

How did the IC50 turn out when `NC(=O)c1ccc(-c2cc(OC3CCOCC3)c3c(N)n[nH]c3c2)cc1N1CCN(CCc2ccccn2)CC1` [Example 10, 4-[3-amino-4-(tetrahydro-2H-pyran-4-yloxy)-1H-indazol-6-yl]-2-{4-[2-(pyridin-2-yl)ethyl]piperazin-1-yl}benzamide] was run?
Its IC50 is 136 nM.

For `CC(=O)c1ccc(-c2cc(OC3CCOCC3)c3c(N)n[nH]c3c2)cc1N1CCN(C2CCCCC2)CC1` [Example 19, 1-{4-[3-amino-4-(tetrahydro-2H-pyran-4-yloxy)-1H-indazol-6-yl]-2-(4-cyclohexylpiperazin-1-yl)phenyl}ethanone], which IC50 is on record?
The IC50 was 38.1 nM.

Which IC50 does the source give for `CC(=O)Nc1ccc(-c2cc(OC3CCOCC3)c3c(C)n[nH]c3c2)cc1N1CCN(C(=O)C2CCC2)CC1` [Example 144, N-{2-[4-(cyclobutylcarbonyl)piperazin-1-yl]-4-[3-methyl-4-(tetrahydro-2H-pyran-4-yloxy)-1H-indazol-6-yl]phenyl}acetamide] here?
The IC50 was 25.4 nM.

How did the IC50 turn out when `CNC(=O)c1ccc(-c2cc(OC(C)C(F)(F)F)c3c(N)n[nH]c3c2)cc1N1CCN(c2cccnc2)CC1` (centres unmarked) [Example 36, 4-{3-amino-4-[(1,1,1-trifluoropropan-2-yl)oxy]-1H-indazol-6-yl}-N-methyl-2-[4-(pyridin-3-yl)piperazin-1-yl]benzamide] was run?
The IC50 was 25.8 nM.

Which IC50 does the source give for `CNC(=O)c1ccc(-c2cc(O[C@@H](C)C(F)(F)F)c3c(N)n[nH]c3c2)cc1N1CCN(c2ncccn2)CC1` [Example 43, 4-(3-amino-4-{[(2S)-1,1,1-trifluoropropan-2-yl]oxy}-1H-indazol-6-yl)-N-methyl-2-[4-(pyrimidin-2-yl)piperazin-1-yl]benzamide] here?
Its IC50 is 63.1 nM.

`CN1CCC(N2CCN(c3cc(-c4cc(OC5CCOCC5)c5c(N)n[nH]c5c4)ccc3C(N)=O)CC2)CC1` [Example 9, 4-[3-amino-4-(tetrahydro-2H-pyran-4-yloxy)-1H-indazol-6-yl]-2-[4-(1-methylpiperidin-4-yl)piperazin-1-yl]benzamide] was tested. Which IC50 did it give?
The IC50 was 3460 nM.

How did the IC50 turn out when `Cc1n[nH]c2cc(-c3ccc(C#N)c(N4CCN(C(=O)OC(C)(C)C)CC4)c3)cc(OC3CCOCC3)c12` [Example 139, tert-butyl 4-{2-cyano-5-[3-methyl-4-(tetrahydro-2H-pyran-4-yloxy)-1H-indazol-6-yl]phenyl}piperazine-1-carboxylate] was run?
The IC50 was 6.86 nM.

`NC(=O)c1ccc(-c2ccc3c(N)n[nH]c3c2)cc1N1CCN(CCN2CCOCC2)CC1` [Example 89, 4-(3-amino-1H-indazol-6-yl)-2-{4-[2-(morpholin-4-yl)ethyl]piperazin-1-yl}benzamide] was tested. Which IC50 did it give?
The IC50 was 13500 nM.

Which IC50 does the source give for `CNC(=O)c1ccc(-c2cc(OC3CCOCC3)c3c(N)n[nH]c3c2)cc1N1CCN(CC(F)F)CC1` [Example 169, 4-[3-amino-4-(tetrahydro-2H-pyran-4-yloxy)-1H-indazol-6-yl]-2-[4-(2,2-difluoroethyl)piperazin-1-yl]-N-methylbenzamide] here?
The IC50 was 38 nM.

`CC(O)c1ccc(-c2cc(OC3CCOCC3)c3c(N)n[nH]c3c2)cc1N1CCN(c2cccnc2)CC1` (centres unmarked) [Example 22, 1-{4-[3-amino-4-(tetrahydro-2H-pyran-4-yloxy)-1H-indazol-6-yl]-2-[4-(pyridin-3-yl)piperazin-1-yl]phenyl}ethanol] was tested. Which IC50 did it give?
The IC50 was 254 nM.

Which IC50 does the source give for `NC(=O)c1ccc(-c2cc(OC3CCNCC3)c3c(N)n[nH]c3c2)cc1N1CCN(c2ccccc2)CC1` [Example 63, 4-[3-amino-4-(piperidin-4-yloxy)-1H-indazol-6-yl]-2-(4-phenylpiperazin-1-yl)benzamide] here?
The IC50 was 25.3 nM.

`CNC(=O)c1ccc(-c2cc(OC3CCOCC3)c3c(C)n[nH]c3c2)cc1N1CCN(C(=O)OCCOC)CC1` [Example 138, 2-methoxyethyl 4-{2-(methylcarbamoyl)-5-[3-methyl-4-(tetrahydro-2H-pyran-4-yloxy)-1H-indazol-6-yl]phenyl}piperazine-1-carboxylate] was tested. Which IC50 did it give?
The IC50 was 25.1 nM.

How did the IC50 turn out when `NC(=O)c1ccc(-c2cc(OC3CCCC3)c3c(N)n[nH]c3c2)cc1N1CCC(C(N)=O)CC1` [Example 79, 1-{5-[3-amino-4-(cyclopentyloxy)-1H-indazol-6-yl]-2-carbamoylphenyl}piperidine-4-carboxamide] was run?
The IC50 was 221 nM.

`NC(=O)c1ccc(-c2cc(OC3CCCC3)c3c(N)n[nH]c3c2)cc1N1CCN(C(=O)C2CC2)CC1` [Example 81, 4-[3-amino-4-(cyclopentyloxy)-1H-indazol-6-yl]-2-[4-(cyclopropylcarbonyl)piperazin-1-yl]benzamide] was tested. Which IC50 did it give?
The IC50 was 17.4 nM.

How did the IC50 turn out when `NC(=O)c1ccc(-c2cc(OC3CCOCC3)c3c(N)n[nH]c3c2)cc1N1CCN(c2cncc(Cl)c2)CC1` [Example 8, 4-[3-amino-4-(tetrahydro-2H-pyran-4-yloxy)-1H-indazol-6-yl]-2-[4-(5-chloropyridin-3-yl)piperazin-1-yl]benzamide] was run?
Its IC50 is 4.42 nM.

With `NC(=O)c1ccc(-c2cc(O[C@H]3CCOC3)c3c(N)n[nH]c3c2)cc1N1CCN(c2cccnc2)CC1` [Example 67, 4-{3-amino-4-[(3S)-tetrahydrofuran-3-yloxy]-1H-indazol-6-yl}-2-[4-(pyridin-3-yl)piperazin-1-yl]benzamide] as the compound, how does the IC50 read?
The IC50 was 7.97 nM.

How did the IC50 turn out when `CNC(=O)c1ccc(-c2cc(OC3CCOCC3)c3c(C)n[nH]c3c2)cc1N1CCN(CC(F)(F)F)CC1` [Example 143, N-methyl-4-[3-methyl-4-(tetrahydro-2H-pyran-4-yloxy)-1H-indazol-6-yl]-2-[4-(2,2,2-trifluoroethyl)piperazin-1-yl]benzamide] was run?
Its IC50 is 95.8 nM.

For `CC(=O)N1CCN(c2cc(-c3cc(OC(C)C(F)(F)F)c4c(N)n[nH]c4c3)ccc2C(N)=O)CC1` (centres unmarked) [Example 96, 2-(4-acetylpiperazin-1-yl)-4-{3-amino-4-[(1,1,1-trifluoropropan-2-yl)oxy]-1H-indazol-6-yl}benzamide], which IC50 is on record?
The IC50 was 89.2 nM.

For `CNC(=O)c1ccc(-c2cc(OC3CCCC3)c3c(C)n[nH]c3c2)cc1N1CCN(C(=O)OCC(C)C)CC1` [Example 128, isobutyl 4-{5-[4-(cyclopentyloxy)-3-methyl-1H-indazol-6-yl]-2-(methylcarbamoyl)phenyl}piperazine-1-carboxylate], which IC50 is on record?
Its IC50 is 214 nM.

`CNC(=O)c1ccc(-c2cc(OC(C)C(F)(F)F)c3c(N)n[nH]c3c2)cc1N1CCN(c2cnccn2)CC1` (centres unmarked) [Example 38, 4-{3-amino-4-[(1,1,1-trifluoropropan-2-yl)oxy]-1H-indazol-6-yl}-N-methyl-2-[4-(pyrazin-2-yl)piperazin-1-yl]benzamide] was tested. Which IC50 did it give?
The IC50 was 31.2 nM.

With `CNC(=O)c1ccc(-c2cc(OC3CCOCC3)c3c(N)n[nH]c3c2)cc1N1CCN(c2cccnc2)CC1` [Example 31, 4-[3-amino-4-(tetrahydro-2H-pyran-4-yloxy)-1H-indazol-6-yl]-N-methyl-2-[4-(pyridin-3-yl)piperazin-1-yl]benzamide] as the compound, how does the IC50 read?
The IC50 was 42.1 nM.

Which IC50 does the source give for `NC(=O)c1ccc(-c2cc(O[C@H]3CCOC3)c3c(N)n[nH]c3c2)cc1N1CCN(c2ccccc2)CC1` [Example 66, 4-{3-amino-4-[(3S)-tetrahydrofuran-3-yloxy]-1H-indazol-6-yl}-2-(4-phenylpiperazin-1-yl)benzamide] here?
The IC50 was 2.93 nM.

`NC(=O)c1ccc(-c2cc(OC3CCCC3)c3c(N)n[nH]c3c2)cc1N1CCN(C(=O)N2CCOCC2)CC1` [Example 82, 4-[3-amino-4-(cyclopentyloxy)-1H-indazol-6-yl]-2-[4-(morpholin-4-ylcarbonyl)piperazin-1-yl]benzamide] was tested. Which IC50 did it give?
The IC50 was 22.3 nM.

With `NC(=O)c1ccc(-c2cc(OC3CCCC3)c3c(N)n[nH]c3c2)cc1N1CCN(C2CC2)CC1` [Example 78, 4-[3-amino-4-(cyclopentyloxy)-1H-indazol-6-yl]-2-(4-cyclopropylpiperazin-1-yl)benzamide] as the compound, how does the IC50 read?
The IC50 was 20.1 nM.
